Holding throughout (type): functional
One test relates to HCT-116. Briefly: In vitro cytotoxicity against HCT116 cancer cell lines. The note with it: Homo sapiens, read-out: TD50 (the source's name).
Another test deals with MCF7. Put plainly: In vitro cytotoxicity against MCF-7 cancer cell lines. To be noted: Homo sapiens, read-out: TD50 (the source's name).
For a further test, the system named is L1210/Adr. Put plainly: In vitro cytotoxicity against L1210/Adr cancer cell lines. The note with it: Mus musculus, read-out: TD50 (the source's name).
The subject of another test is KB. Put plainly: In vitro cytotoxicity against KB cancer cell lines. To be noted: Homo sapiens, read-out: TD50 (the source's name).
The next test concerns L1210. Put plainly: In vitro cytotoxicity against L1210 cancer cell lines. To be noted: Mus musculus, read-out: TD50 (the source's name).
The subject of a further test is CHO. Put plainly: In vitro cytotoxicity against CHO cancer cell lines. To be noted: Cricetulus griseus, read-out: TD50 (the source's name).

The record followed here is ChEMBL document CHEMBL1129715, “Synthesis and biological evaluation of hybrid molecules containing the pyrroloquinoline nucleus and DNA-minor groove binders” (1996).

Values after ≈ are worked out from the molar mass of the structure shown.

As for `CCOC(=O)c1cc(NC2=CC3=NCCc4cn(C)c(c43)C2=O)cn1COC`, the CC50 came out at 0.4 µg/mL (≈ 1.05 µM) in the test on HCT-116; 0.5 µg/mL (≈ 1.31 µM) in the test on MCF7; 1 µg/mL (≈ 2.61 µM) with L1210/Adr; 0.5 µg/mL (≈ 1.31 µM) with KB; 2 µg/mL (≈ 5.23 µM) in the test with L1210; 0.7 µg/mL (≈ 1.83 µM) in the test on CHO.
Turning to `COCn1cc(NC(=O)c2cc(NC(=O)c3cc(NC4=CC5=NCCc6cn(C)c(c65)C4=O)cn3COC)cn2COC)cc1C(=O)NCCCN(C)C`, the CC50 in the test with HCT-116 is 2.1 µg/mL (≈ 2.83 µM); in the test on MCF7, 0.2 µg/mL (≈ 0.269 µM); with L1210/Adr, 2.8 µg/mL (≈ 3.77 µM); in the test on KB it was 0.4 µg/mL (≈ 0.538 µM); in the test on L1210, 3.3 µg/mL (≈ 4.44 µM); in the test with CHO it was 0.9 µg/mL (≈ 1.21 µM).
Take `CCOC(=O)c1cc(NC(=O)c2cc(NC(=O)c3cc(NC4=CC5=NCCc6cn(C)c(c65)C4=O)cn3COC)cn2COC)cn1COC`: the CC50 in the test on HCT-116 came to 5.2 µg/mL (≈ 7.57 µM); with MCF7, 4.7 µg/mL (≈ 6.84 µM); in the test on L1210/Adr it was 2.5 µg/mL (≈ 3.64 µM); in the test with KB, 1.4 µg/mL (≈ 2.04 µM); in the test with L1210, 1.3 µg/mL (≈ 1.89 µM); with CHO, 4.9 µg/mL (≈ 7.14 µM).
Take `COCn1cc(NC2=CC3=NCCc4cn(C)c(c43)C2=O)cc1C(=O)NCCCN(C)C`: the CC50 in the test on HCT-116 turned out to be 5.8 µg/mL (≈ 13.2 µM); in the test on MCF7 it was 0.4 µg/mL (≈ 0.912 µM); in the test on L1210/Adr, 2.5 µg/mL (≈ 5.7 µM); in the test on KB it was 0.5 µg/mL (≈ 1.14 µM); in the test on L1210, 3.8 µg/mL (≈ 8.67 µM); in the test with CHO it was 49.2 µg/mL (≈ 112 µM).
In the case of `COCn1cc(NC(=O)c2cc(NC3=CC4=NCCc5cn(C)c(c54)C3=O)cn2COC)cc1C(=O)NCCCN(C)C`, the CC50 came to 6.1 µg/mL (≈ 10.3 µM) in the test on HCT-116; 0.5 µg/mL (≈ 0.846 µM) in the test with MCF7; 3.8 µg/mL (≈ 6.43 µM) in the test with L1210/Adr; 1.9 µg/mL (≈ 3.22 µM) in the test on KB; 8.2 µg/mL (≈ 13.9 µM) in the test on L1210; 17.5 µg/mL (≈ 29.6 µM) in the test on CHO.
For `CCOC(=O)c1cc(NC(=O)c2cc(NC3=CC4=NCCc5cn(C)c(c54)C3=O)cn2COC)cn1COC`, the CC50 in the test on HCT-116 turned out to be 1.7 µg/mL (≈ 3.18 µM); in the test on MCF7, 3.3 µg/mL (≈ 6.17 µM); with L1210/Adr it was 3.3 µg/mL (≈ 6.17 µM); in the test on KB it was 2.3 µg/mL (≈ 4.3 µM); in the test on L1210, 4.9 µg/mL (≈ 9.17 µM); in the test on CHO it was 4.2 µg/mL (≈ 7.86 µM).
With `COc1cccc2c1C(=O)c1c(O)c3c(c(O)c1C2=O)C[C@@](O)(C(=O)CO)C[C@@H]3O[C@H]1C[C@H](N)[C@H](O)[C@H](C)O1` [DOXORUBICIN], the CC50 amounted to 0.17 µg/mL (≈ 0.313 µM) with HCT-116; 0.2 µg/mL (≈ 0.368 µM) with MCF7; 0.3 µg/mL (≈ 0.552 µM) in the test with L1210/Adr; 0.02 µg/mL (≈ 0.0368 µM) in the test with KB; 0.02 µg/mL (≈ 0.0368 µM) in the test with L1210; 0.05 µg/mL (≈ 0.092 µM) with CHO.
